Counter-ions that a name gives are not always drawn.
Experiments:
hA2B AR = biological target: T1, hA2B AR (Homo sapiens, UniProt P29275)
T1 sequence (P29275 1-332): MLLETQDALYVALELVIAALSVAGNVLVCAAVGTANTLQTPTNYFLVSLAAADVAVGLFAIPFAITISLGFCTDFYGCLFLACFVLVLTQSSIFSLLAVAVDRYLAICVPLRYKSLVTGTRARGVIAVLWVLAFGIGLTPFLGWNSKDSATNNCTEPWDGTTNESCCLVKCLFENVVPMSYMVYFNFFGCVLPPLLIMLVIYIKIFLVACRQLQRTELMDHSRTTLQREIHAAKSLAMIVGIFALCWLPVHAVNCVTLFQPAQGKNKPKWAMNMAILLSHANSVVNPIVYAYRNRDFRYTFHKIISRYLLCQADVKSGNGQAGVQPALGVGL

human (h) A2B AR = settings: cited from earlier work
Water solubility = type: physicochemical
hA3 AR = biological target: T2, hA3 AR (Homo sapiens, UniProt P0DMS8)
T2 sequence (P0DMS8 1-318): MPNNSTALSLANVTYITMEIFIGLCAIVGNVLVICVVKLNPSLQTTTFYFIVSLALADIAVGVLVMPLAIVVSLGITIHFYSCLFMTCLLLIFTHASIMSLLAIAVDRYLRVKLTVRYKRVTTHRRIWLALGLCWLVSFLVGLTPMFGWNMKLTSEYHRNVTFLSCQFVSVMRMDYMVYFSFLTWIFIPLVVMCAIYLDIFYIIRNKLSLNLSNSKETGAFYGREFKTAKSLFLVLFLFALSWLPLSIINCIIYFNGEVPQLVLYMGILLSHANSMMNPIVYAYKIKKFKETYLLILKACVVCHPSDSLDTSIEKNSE

| Structure (SMILES) | activity at hA2B AR in the functional assay (hA2B AR) | further results |
| --- | --- | --- |
| CC(C)(C)OC(=O)NCC1CCC(CNc2nc(N)n3nc(-c4ccco4)nc3n2)CC1 (stereo not drawn) [Compound 11, 7-Amino-5-[(4-tert-butyloxycarbonylaminomethyl)cyclohexylmethyl]-amino-2(2-furyl) 1,2,4-triazolo [1,5-a] 1,3,5-triazine] | poorly active | – |
| Nc1nc(NCCc2ccc(O)cc2)nc2nc(-c3ccco3)nn12 [ZM241385] | – | affinity at hA2B AR (human (h) A2B AR): 28 nM |
| Nc1nc(NC(=O)c2ccccc2)n2nc(-c3ccco3)nc2n1 [Compound 43, 5-amino-7-phenylcarbonylamino-2(2-furyl) 1,2,4-triazolo [1,5-a] 1,3,5-triazine trifluoroacetate] | poorly active | – |
| Nc1nc(N)n2nc(-c3ccco3)nc2n1 [Compound 41, 5,7-diamino-2(2-furyl) 1,2,4-triazolo [1,5-a] 1,3,5-triazine] | poorly active | – |
| NCCOCCOCCNc1nc(N)n2nc(-c3ccco3)nc2n1.O=C(O)C(F)(F)F [Compound 20, 7-Amino-5-[(8-amino)triethylenoxy]-amino-2(2-furyl) 1,2,4-triazolo [1,5-a] 1,3,5-triazine trifluoroacetate] | – | solubility (Water solubility): ≥ 10 mM |
| CC(C)(C)OC(=O)NCCNc1nc(N)n2nc(-c3ccco3)nc2n1 [Compound 10, 7-Amino-5-[(2-tert-butyloxycarbonylamino)ethyl]-amino-2(2-furyl) 1,2,4-triazolo [1,5-a] 1,3,5-triazine] | – | Ki (hA3 AR): ~1 µM |

From article PMC3578427 (Journal of medicinal chemistry, 2011)
